Experimental findings from US20070117818A1, “Pyrimidinone compounds useful as kinase inhibitors” (priority 2004, published 2007) are described below.

The experiment has as its target T1, hYAK3 (Homo sapiens, UniProt O43781).
T1 construct: made in house; host or cells: baculovirus expression system in Sf9 cells
T1 sequence (O43781 124-526): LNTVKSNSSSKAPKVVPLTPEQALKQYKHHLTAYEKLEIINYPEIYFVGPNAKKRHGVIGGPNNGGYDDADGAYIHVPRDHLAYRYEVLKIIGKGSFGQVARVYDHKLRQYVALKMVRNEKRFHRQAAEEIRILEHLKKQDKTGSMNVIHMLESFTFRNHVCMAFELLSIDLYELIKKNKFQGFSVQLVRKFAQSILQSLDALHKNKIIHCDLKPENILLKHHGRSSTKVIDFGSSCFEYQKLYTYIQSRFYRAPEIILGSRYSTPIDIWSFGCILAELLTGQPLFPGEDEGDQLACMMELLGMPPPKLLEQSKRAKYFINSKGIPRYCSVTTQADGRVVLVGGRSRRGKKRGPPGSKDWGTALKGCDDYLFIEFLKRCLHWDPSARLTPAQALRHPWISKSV
The experiment in a line: YAK3 Scintillation Proximity Assay using Ser164 of myelin basic protein as phosphoacceptor (kinase assay of purified hYAK3). The class given is biochemical. The conditions noted are these: purified GST-hYak3-His6 (aa 124-526), 0.001 mM ATP, 4 μM Ser164 peptide, 2 hours at room temperature; pIC50 = −log10(IC50). As for the experimental part: Substrate phosphorylation assays were carried out as follows:
YAK3 Scintillation Proximity Assays Using Ser164 of Myelin Basic Protein as the phosphoacceptor
The source of Ser164 substrate oeptide The biotinylated Ser164, S164A peptide (Biotinyl-LGGRDSRAGS*PMARR-OH), sequence derived from the C-terminus of bovine myelin basic protein (MBP) with Ser162 substituted as Ala162, was purchased from California Peptide Research Inc. (Napa, Calif.), and its purity was determined by HPLC. Phosphorylation occurs at position 164 (marked S* above). The calculated molecular mass of the peptide was 2166 dalton. Solid sample was dissolved at 10 mM in DMSO, aliquoted, and stored at −20° C. until use.
hYAK3: Glutathione-S-Transferase (GST)-hYak3-His6 containing amino acid residues 124-526 of human YAK3 (aa 124-526 of SEQ ID NO 2. in U.S. Pat. No. 6,323,318) was purified from baculovirus expression system in Sf9 cells using Glutathione Sepharose 4B column chromatography followed by Ni-NTA-Agarose column chromatography. Purity greater than 65% typically was achieved. Samples, in 50 mM Tris, 150 mM NaCl, 10% glycerol, 0.1% Triton, 250 mM imidazole, 10 mM β-mercapto ethanol, pH 8.0. were stored at −80° C. until use.
Kinase assay of purified hYAK3: Assays were performed in 96 well (Costar, Catalog No. 3789) or 384 well plates (Costar, Catalog No. 3705). Reaction (in 20, 25, or 40 μl volume) mix contained in final concentrations 25 mM Hepes buffer, pH 7.4; 10 mM MgCl2; 10 mM β-mercapto ethanol; 0.0025% Tween-20; 0.001 mMATP, 0.1 μCi of [γ-^33P]ATP; purified hYAK3 (7-14 ng/assay; 4 nM final); and 4 μM Ser164 peptide. Compounds, titrated in DMSO, were evaluated at concentrations ranging from 50 μM to 0.5 nM. […] Reactions were incubated for 2 hours at room temperature and were stopped by a 75 ul addition of 0.19 μg Streptavidin Scintillation Proximity beads (Amersham Pharmacia Biotech, Catalog No. RPNQ 0007) in PBS, pH 7.4, 10 mM EDTA, 0.1% Triton X-100, 1 mM ATP. Under the assay conditions defined above, the Km(apparent) for ATP was determined to be 7.2+-2.4 μM.
A general note: SPA uses beads or plates that emit light when radiolabelled molecules are held near them.
With `COCCNc1nc(-c2ccc3nc(NC(=O)c4cccs4)[nH]c3c2)cc(=O)[nH]1` [Il, N-[5-(2-{[2-(Methyloxy)ethyl]amino}-6-oxo-1,6-dihydro-4-pyrimidinyl)-1H-benzimidazol-2-yl]-2-thiophenecarboxamide], the concentration for half-maximal inhibition (IC50) was 10.2 to 100 nM.

As to `NS(=O)(=O)c1cccc(Nc2nc(-c3ccc4nc(NC(=O)c5cccs5)[nH]c4c3)cc(=O)[nH]2)c1` [Ig, N-[5-(2-{[3-(Aminosulfonyl)phenyl]amino}-6-oxo-1,6-dihydro-4-pyrimidinyl)-1H-benzimidazol-2-yl]-2-thiophenecarboxamide], the IC50 is 1.02 to 10 nM.

On to `O=C(Nc1nc2ccc(-c3cc(=O)[nH]c(NCCc4ccc(Cl)cc4Cl)n3)cc2[nH]1)c1cccs1` [Ip, N-[5-(2-{[2-(2,4-Dichlorophenyl)ethyl]amino}-6-oxo-1,6-dihydro-4-pyrimidinyl)-1H-benzimidazol-2-yl]-2-thiophenecarboxamide], for which the IC50 is 102 to 1000 nM.

The term IC50 denotes the midpoint of a concentration-inhibition curve. A lower IC50 goes with greater potency in that assay.
